The numbers were not newly measured in patent publication US20240248099A1, “BIOMARKERS FOR AGE-RELATED MACULAR DEGENERATION” (BELITE BIO, LLC, priority 2021, published 2024), which cites them from elsewhere.

The structures appear in SMILES notation.

This series addresses T1, RBP4 (Homo sapiens, UniProt P02753).
T1 construct: host or cells: serum of AMD patients (endogenous circulating protein)

As to `CC1=C(/C=C/C(C)=C/C=C/C(C)=C/C(=O)Nc2ccc(O)cc2)C(C)(C)CCC1` [fenretinide], the “incidence of choroidal neovascularization onset” value (246 AMD patients with only geographic atrophy, 100 mg or 300 mg fenretinide or placebo, 2 years, especially in the higher dose group) is given as “reduction in the incidence of choroidal neovascularization onset”. Further, the “growth rate of geographic atrophy, overall cohort” value (overall cohort, insufficient number of subjects achieving serum RBP4 less than 1 μM) is given as “no statistically significant retardation of the growth rate of geographic atrophy”. In addition, the “rate of geographic atrophy progression versus serum RBP4 level” value (patients who achieved RBP4 levels below 1 μM (approximately 20 μg/ml) after fenretinide treatment) is listed as “a lower serum RBP4 level was correlated with a slower rate of geographic atrophy progression”.
